One data set has as its target T1, human PDE10A enzyme (Homo sapiens, UniProt Q9Y233).
T1 construct: Human PDE10A full-length gene was transfected into Sf9 or COS-7 cells; His-tag; made in house; host or cells: Sf9 or COS-7 cells
Put plainly: PDE10A enzyme activity inhibition test (SPA). The format is biochemical. The following applies: for inhibition at 0.1 µM: 100 nM compound, read-out: Inhibition rate (%) (100 nM); for pIC50: [3H]cGMP substrate. As to the method: Human PDE10A full-length gene was transfected into Sf9 or COS-7 cells, the cells were disrupted and centrifuged, and human PDE10A enzyme was obtained from the residue. The enzyme extracted from Sf9 cells was partially purified using His-tag affinity column. The enzyme was stored at −70° C. until use. The PDE activity was measured using an SPA (Scintillation Proximity Assay) (GE Healthcare). To measure the inhibitory activity of the compound, 10 μL of serially diluted compound was reacted with 20 μL of PDE enzyme in an assay buffer (50 mM HEPES-NaOH, 8.3 mM MgCl2, 1.7 mM EGTA, 0.1% BSA (pH 7.4)) […] at room temperature. The final concentration of DMSO in the reaction mixture was 1 percent. The compounds were evaluated in duplicate in 96-well half-area plates (Corning). To start the reaction, 10 μL of substrate [^3H] cGMP (25 and 50 nM; GE Healthcare and PerkinElmer, respectively) was added to 40 μL. After 60 min of reaction at room temperature, yttrium SPA beads containing zinc sulphate were added (6 mg/mL, 20 μL) to terminate the PDE reaction. After standing still for 1 hr, the measurement was performed using a scintillation counter (PerkinElmer) and the PDE10A enzyme activity inhibition rate was calculated. The inhibition rate was calculated based on the control containing enzyme and DMSO as 0% and the control without enzyme as 100%.

pIC50: −log10 of the molar value. Bounds are passed on as bounds.

T1 sequence (Q9Y233 267-1055): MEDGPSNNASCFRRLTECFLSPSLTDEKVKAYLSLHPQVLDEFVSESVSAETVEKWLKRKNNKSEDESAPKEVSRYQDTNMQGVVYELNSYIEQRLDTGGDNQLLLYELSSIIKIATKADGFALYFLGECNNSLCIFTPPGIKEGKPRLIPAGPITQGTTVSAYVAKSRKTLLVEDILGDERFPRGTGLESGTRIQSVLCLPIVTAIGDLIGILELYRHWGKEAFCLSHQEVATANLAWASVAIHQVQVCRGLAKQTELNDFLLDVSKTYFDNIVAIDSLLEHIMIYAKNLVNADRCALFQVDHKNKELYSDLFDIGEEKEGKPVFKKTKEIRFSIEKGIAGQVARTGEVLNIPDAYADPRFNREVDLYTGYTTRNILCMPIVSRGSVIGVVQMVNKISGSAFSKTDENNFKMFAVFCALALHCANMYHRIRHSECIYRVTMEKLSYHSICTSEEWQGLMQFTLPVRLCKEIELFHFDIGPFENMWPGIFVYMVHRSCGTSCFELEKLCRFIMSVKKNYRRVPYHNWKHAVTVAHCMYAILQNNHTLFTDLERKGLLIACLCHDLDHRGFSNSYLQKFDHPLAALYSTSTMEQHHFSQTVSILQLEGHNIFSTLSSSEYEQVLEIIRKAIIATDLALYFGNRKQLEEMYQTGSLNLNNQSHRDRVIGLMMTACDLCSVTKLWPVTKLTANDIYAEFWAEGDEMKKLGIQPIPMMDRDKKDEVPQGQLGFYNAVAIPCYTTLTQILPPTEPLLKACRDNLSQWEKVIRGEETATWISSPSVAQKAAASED

`COc1cn(-c2ccc(-n3cccn3)cc2F)nc(-c2ccnn2CC(F)(F)F)c1=O` [Example 6, 1-[2-fluoro-4-(1H-pyrazol-1-yl)phenyl]-5-methoxy-3-[1-(2,2,2-trifluoroethyl)-1H-pyrazol-5-yl]pyridazin-4(1H)-one]: the melting point was 185 to 187 °C. Still for that read-out and setting: the figure for `COc1cn(-c2ccc(-n3cc(F)c(F)c3)cc2O)nc(-c2ccnn2-c2ccccc2)c1=O` [Example 11, 1-[4-(3,4-difluoro-1H-pyrrol-1-yl)-2-hydroxyphenyl]-5-methoxy-3-(1-phenyl-1H-pyrazol-5-yl)pyridazin-4(1H)-one] is 241 to 243 °C. Turning to `COc1cn(-c2ccc3c(c2F)C(C)(C)C(=O)N3C2CCC2)nc(-c2ccnn2-c2ccccc2)c1=O` [Example 50, 1-cyclobutyl-4-fluoro-5-[5-methoxy-4-oxo-3-(1-phenyl-1H-pyrazol-5-yl)pyridazin-1(4H)-yl]-3,3-dimethyl-1,3-dihydro-2H-indol-2-one], on human PDE10A enzyme, the inhibition at 0.1 µM was found to be 101% and the pIC50 is at least 8.00. The corresponding values for `COc1cn(-c2cnn(CC3CC3)c2)nc(-c2cc(C)nn2-c2ccccc2)c1=O` [Example 51, 1-[1-(cyclopropylmethyl)-1H-pyrazol-4-yl]-5-methoxy-3-(3-methyl-1-phenyl-1H-pyrazol-5-yl)pyridazin-4(1H)-one] are 102% and at least 8.00. Taken in the same sequence, the figures for `COc1nc(N2CC(F)(F)C(F)(F)C2)ccc1-n1cc(OC)c(=O)c(-c2ccnn2-c2ccccc2)n1` [Example 52, 5-methoxy-1-[2-methoxy-6-(3,3,4,4-tetrafluoropyrrolidin-1-yl)pyridin-3-yl]-3-(1-phenyl-1H-pyrazol-5-yl)pyridazin-4(1H)-one] were 101% and at least 8.00. As for `COc1nc(-n2cc(F)c(F)c2)ccc1-n1cc(OC)c(=O)c(-c2ccnn2-c2ccccc2)n1` [Example 53, 1-[6-(3,4-difluoro-1H-pyrrol-1-yl)-2-methoxypyridin-3-yl]-5-methoxy-3-(1-phenyl-1H-pyrazol-5-yl)pyridazin-4(1H)-one], on human PDE10A enzyme, the inhibition at 0.1 µM came out at 97% and the pIC50 is at least 8.00.

For `COc1cn(-c2cnn(CC3(C)CC3)c2)nc(-c2ccnn2-c2ccccc2)c1=O` [Example 54, 5-methoxy-1-{1-[(1-methylcyclopropyl)methyl]-1H-pyrazol-4-yl}-3-(1-phenyl-1H-pyrazol-5-yl)pyridazin-4(1H)-one], at human PDE10A enzyme, the inhibition at 0.1 µM stood at 101% and the pIC50 is at least 8.00.
